Data taken from patent US8309546B2, “Morpholinopurine derivatives” (Daiichi Sankyo Company, Limited, priority 2008, dated 2012).
pIC50: −log10 of the molar value. Values joined by “and” are separate entries in the source; they are usually repeats but may differ in a detail not shown here. Equal entries are not always repeated.

Assays:
[1] = system: human ovary cancer cell strain IGROV1; test: Cell growth inhibition test (MTT), IGROV1; type: cell-based; settings: IGROV-1, 72 h, IGROV1, 3 days culture, read-out: concentration exhibiting anti-cell effect (GI50)
Procedure, shortened: (§1)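 Seed 5000/1000/5000 cells per well (AN3CA/IGROV1/HT29); add compound next day; culture 3 d, 37° C, 5% CO2; MTT 4 h, DMSO, A540. T/C % vs pre-dose baseline; GI50 from bracketing concentrations.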

PI3Kα = PI3Kα (Homo sapiens, UniProt P42336); test: PI3K kinase activity inhibition assay; type: biochemical; settings: Kinase-Glo Plus ATP detection, read-out: IC50 against PI3K
PI3Kα, sequence (P42336 whole entry, species assumed): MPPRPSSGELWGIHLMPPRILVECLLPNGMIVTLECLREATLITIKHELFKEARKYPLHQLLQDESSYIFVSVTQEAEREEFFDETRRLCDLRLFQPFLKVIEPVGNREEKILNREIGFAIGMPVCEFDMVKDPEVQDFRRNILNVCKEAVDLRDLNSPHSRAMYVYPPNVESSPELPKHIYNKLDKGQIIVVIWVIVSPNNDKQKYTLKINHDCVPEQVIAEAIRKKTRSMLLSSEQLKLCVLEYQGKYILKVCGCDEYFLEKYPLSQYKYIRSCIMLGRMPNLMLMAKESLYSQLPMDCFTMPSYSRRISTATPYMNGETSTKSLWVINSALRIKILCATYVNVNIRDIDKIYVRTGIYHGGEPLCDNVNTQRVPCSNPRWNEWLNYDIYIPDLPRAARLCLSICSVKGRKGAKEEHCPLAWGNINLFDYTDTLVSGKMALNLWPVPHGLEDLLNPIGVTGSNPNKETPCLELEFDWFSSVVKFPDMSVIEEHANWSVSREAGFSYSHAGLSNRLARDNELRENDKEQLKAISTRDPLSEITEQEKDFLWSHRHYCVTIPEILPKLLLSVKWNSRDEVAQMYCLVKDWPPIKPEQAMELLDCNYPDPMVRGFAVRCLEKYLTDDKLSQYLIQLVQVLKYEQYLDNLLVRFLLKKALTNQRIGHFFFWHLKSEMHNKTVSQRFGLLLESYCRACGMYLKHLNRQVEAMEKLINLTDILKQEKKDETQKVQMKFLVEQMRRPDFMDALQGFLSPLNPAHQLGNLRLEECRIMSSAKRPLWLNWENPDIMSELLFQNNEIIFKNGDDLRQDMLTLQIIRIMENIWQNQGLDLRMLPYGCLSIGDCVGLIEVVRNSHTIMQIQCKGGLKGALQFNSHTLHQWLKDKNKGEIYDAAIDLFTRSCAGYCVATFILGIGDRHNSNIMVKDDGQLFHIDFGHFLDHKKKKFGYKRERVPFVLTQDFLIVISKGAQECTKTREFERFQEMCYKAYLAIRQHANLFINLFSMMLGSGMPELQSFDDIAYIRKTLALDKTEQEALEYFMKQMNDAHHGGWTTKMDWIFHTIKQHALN
PI3Kα, sequence (P27986 whole entry partner, species assumed): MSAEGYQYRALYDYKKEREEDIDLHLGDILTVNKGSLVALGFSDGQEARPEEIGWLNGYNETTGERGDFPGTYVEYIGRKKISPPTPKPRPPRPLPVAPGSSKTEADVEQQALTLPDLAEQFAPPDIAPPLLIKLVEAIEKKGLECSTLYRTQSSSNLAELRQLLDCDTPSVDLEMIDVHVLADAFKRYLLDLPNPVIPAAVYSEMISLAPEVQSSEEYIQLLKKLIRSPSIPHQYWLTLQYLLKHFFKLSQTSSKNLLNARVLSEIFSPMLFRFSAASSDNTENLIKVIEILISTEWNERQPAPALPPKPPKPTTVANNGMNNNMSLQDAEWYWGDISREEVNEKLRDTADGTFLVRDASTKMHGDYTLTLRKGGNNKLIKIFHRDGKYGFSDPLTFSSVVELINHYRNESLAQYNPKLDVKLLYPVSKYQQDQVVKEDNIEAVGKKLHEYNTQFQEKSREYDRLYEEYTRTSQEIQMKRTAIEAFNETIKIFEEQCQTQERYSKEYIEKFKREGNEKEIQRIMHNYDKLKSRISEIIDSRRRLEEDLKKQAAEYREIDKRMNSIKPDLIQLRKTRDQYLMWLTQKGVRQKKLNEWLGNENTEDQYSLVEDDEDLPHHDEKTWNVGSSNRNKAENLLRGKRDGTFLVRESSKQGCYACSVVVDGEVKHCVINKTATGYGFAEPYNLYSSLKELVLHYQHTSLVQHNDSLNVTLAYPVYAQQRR
Procedure, shortened: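 PI3Kα (50 nM solution) was reacted with 30 μM ATP and 45 μM PIP2 solutions, each in HEPES pH 7.4 with MgCl2 and DTT, for 2 h at room temperature. Remaining ATP was measured by Kinase-Glo Plus luminescence, and inhibition was derived from ATP consumed. IC50 was taken from curve fitting of the serial dilutions.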

[2] = system: human colon cancer cell strain HT29; test: Cell growth inhibition test (MTT), HT29; type: cell-based; settings: HT-29, 72 h, HT29, 3 days culture, read-out: concentration exhibiting anti-cell effect (GI50)
Procedure, shortened: as §1

[3] = system: human endometrial cancer cell strain AN3CA; test: Cell growth inhibition test (MTT), AN3CA; type: cell-based; settings: AN3-CA, 72 h, 3 days culture, read-out: concentration exhibiting anti-cell effect (GI50)
Procedure, shortened: as §1

[4] = system: human endometrial cancer cell strain AN3CA tumor; test: Anti-tumor effect assay using mouse subcutaneous transplantation model; type: in vivo, female nude mouse; settings: AN3-CA, oral, tumor weight vs negative control, read-out: Anti-tumor effect (tumor growth inhibition rate)
Procedure: A tumor section was prepared from a human endometrial cancer cell strain AN3CA tumor mass formed in a female nude mouse as a subcutaneously transplanted tumor and then a xenograft model was prepared by transplanting the tumor section into female nude mouse. Tumor-bearing mice having an estimated tumor volume (long diameter×short diameter×short diameter/2) of 80 to 200 mm^3 were divided, so that there should be no significant difference in the mean estimated tumor volume and body weight as compared with the negative control group to perform a test. The test compound was orally administered at a predetermined dose for 8 consecutive days. On the following day of the final administration day, tumor-bearing mice were anesthetized and exsanguinated to death and a tumor mass was isolated to measure tumor weight (the compounds of Examples 1, 3, 6, 8, 11, 12, and 14). Furthermore, as a similar test, the test compound was orally administered for 5 consecutive days, animals were sacrificed on the final administration day, and tumor weight was measured (the compounds of Examples 60, 63, 75, 77, 79, 89, 92, 107, 108, 109, 110, and 127).
In all the tests, anti-tumor effect was calculated by the following formula. {1−(tumor weight in compound treatment group/tumor weight in negative control group)}×100

[5] = target: T1, human mTOR (His-tagged mTOR (1362C)) (Homo sapiens, UniProt P42345); test: mTOR kinase activity inhibition assay; type: biochemical; settings: HTRF, read-out: IC50 against mTOR
T1 construct: the 1362 to 2549 amino acid portion on the C terminus side of human mTOR; His tag (N); made in house
T1 sequence (P42345 1362-2549): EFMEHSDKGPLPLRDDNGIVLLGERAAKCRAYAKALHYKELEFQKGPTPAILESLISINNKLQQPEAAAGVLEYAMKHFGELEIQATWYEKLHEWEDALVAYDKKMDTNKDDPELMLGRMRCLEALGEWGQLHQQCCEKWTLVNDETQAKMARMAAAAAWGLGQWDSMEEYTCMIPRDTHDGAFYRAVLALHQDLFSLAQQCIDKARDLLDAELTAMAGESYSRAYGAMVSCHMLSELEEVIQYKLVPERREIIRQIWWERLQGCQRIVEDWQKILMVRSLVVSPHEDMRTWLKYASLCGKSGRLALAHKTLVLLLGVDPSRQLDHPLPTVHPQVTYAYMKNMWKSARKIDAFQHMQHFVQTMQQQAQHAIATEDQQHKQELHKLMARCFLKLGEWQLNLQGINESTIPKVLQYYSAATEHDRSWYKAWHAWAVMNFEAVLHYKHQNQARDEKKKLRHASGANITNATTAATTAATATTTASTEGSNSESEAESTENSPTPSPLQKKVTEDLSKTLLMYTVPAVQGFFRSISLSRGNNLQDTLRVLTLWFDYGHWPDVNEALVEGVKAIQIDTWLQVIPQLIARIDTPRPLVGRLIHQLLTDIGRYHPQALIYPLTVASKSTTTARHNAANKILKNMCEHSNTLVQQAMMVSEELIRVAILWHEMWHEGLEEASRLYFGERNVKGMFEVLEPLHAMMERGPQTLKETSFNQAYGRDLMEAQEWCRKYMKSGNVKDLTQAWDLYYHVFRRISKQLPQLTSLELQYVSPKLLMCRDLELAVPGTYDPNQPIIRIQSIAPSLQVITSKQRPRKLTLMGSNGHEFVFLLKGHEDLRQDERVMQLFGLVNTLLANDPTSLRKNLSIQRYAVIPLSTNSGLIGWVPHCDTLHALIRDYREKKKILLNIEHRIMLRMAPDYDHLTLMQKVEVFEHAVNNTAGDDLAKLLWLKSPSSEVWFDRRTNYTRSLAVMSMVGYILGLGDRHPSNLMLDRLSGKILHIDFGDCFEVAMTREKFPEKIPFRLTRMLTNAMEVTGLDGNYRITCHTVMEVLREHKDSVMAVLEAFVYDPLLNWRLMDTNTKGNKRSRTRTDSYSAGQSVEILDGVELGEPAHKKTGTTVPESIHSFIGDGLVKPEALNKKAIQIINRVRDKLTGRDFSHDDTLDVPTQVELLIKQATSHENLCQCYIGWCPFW
Procedure, shortened: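 Crude His-tagged mTOR (aa 1362–2549) from stable HEK293 cells, with 8 μg/ml biotinylated peptide in 50 mM HEPES pH 7.5, 20 mM MnCl2; compound diluted in 20 μM ATP solution, reaction 3 h at room temperature. Phospho-peptide detected by HTRF (anti-phospho-S6K Thr389 cryptate/streptavidin-XL665, overnight at 4°C), 665/620 nm ratio. IC50 derived from curve fit of % inhibition.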

[6] = system: S6 (serine 235 and 236) phosphorylation in AN3CA tumor; test: S6 phosphorylation inhibition assay in xenograft; type: in vivo, female nude mouse; settings: Mus musculus, AN3-CA, oral, 6 hr after dosing
Procedure: (§2) A tumor section was prepared from a human endometrial cancer cell strain AN3CA tumor mass formed in a female nude mouse as subcutaneously transplanted tumor and a xenograft model was prepared by subcutaneously transplanting the tumor to a female nude mouse. The test compound at a predetermined concentration was orally administered. After a predetermined time, the anesthetized mouse was exsanguinated to death, and a tumor mass was isolated. The tumor mass was crushed using a lysis buffer containing inhibitors of proteases and dephosphorylating enzymes (Cell Signaling Technology, Inc.) and the supernatant was separated by centrifugation to obtain a tumor extract. The protein content of the tumor extract was measured using DC Protein Assay Kit (Bio-Rad Laboratories, Inc.) and phosphorylation conditions of Akt (threonine 308) and S6 (serine 235 and 236) were analyzed by a usual technique of western blotting using tumor extracts containing the same amount of protein. The primary antibody and the secondary antibody used for detecting each molecule were rabbit anti-phospho-Akt(T308) antibody and HRP-labeled goat anti-rabbit IgG antibody or mouse anti-phospho-S6(S235/236) antibody and HRP-labeled sheep anti-mouse IgG antibody.
(§3) The signal intensity detected using an image analyzer Typhoon 9400 (GE Healthcare) was quantified, and the phosphorylation inhibition rate (%) was calculated by the following formula. Phosphorylation inhibitory activity (%) of Akt and S6 after treatment with test compound=100−100×(B/A) A: Signal intensity derived from phosphorylated protein in tumor mass isolated from mouse untreated with test compound B: Signal intensity derived from phosphorylated protein in tumor mass isolated from mouse treated with test compound

[7] = system: Akt (threonine 308) phosphorylation in AN3CA tumor; test: Akt phosphorylation inhibition assay in xenograft; type: in vivo, female nude mouse; settings: Mus musculus, AN3-CA, oral, 6 hr after dosing
Procedure: as §2, §3

SMILES	GI50 [1]	pIC50 (PI3Kα)	GI50 [2]	GI50 [3]	pIC50 [5]	inhibition in vivo at 10 mg/kg/day ([4]; 10 mg/kg/day, 8 or 5 consecutive days depending on compound)	inhibition in vivo at 20 mg/kg/day ([4]; 20 mg/kg/day, consecutive days)	inhibition at 10 mg/kg [6]	inhibition at 10 mg/kg [7]
C[C@@H]1CN(c2nc3c(N4CCOCC4)nc(-c4cnc(N)nc4)nc3n2CC2CC2)C[C@H](C)N1 [Example 12, 5-{9-(Cyclopropylmethyl)-8-(cis-3,5-dimethylpiperazin-1-yl)-6-morpholin-4-yl-9H-purin-2-yl}pyrimidin-2-amine]	≤ 5 µM	7.70 to 8.00 and 7.30 to 7.70	≤ 5 µM	≤ 5 µM		61%	71%		
C[C@@H]1CN(c2nc3c(N4CCOCC4)nc(-c4cnc(N)nc4)nc3n2CC2CC2)CCN1 [Example 94, 5-{9-(Cyclopropylmethyl)-8-[(3R)-3-methylpiperazin-1-yl]-6-morpholin-4-yl-9H-purin-2-yl}pyrimidin-2-amine]	≤ 5 µM	> 8.00	≤ 5 µM	≤ 5 µM	7.52 to 8.00				
C[C@@H]1CN(c2nc3c(N4CCOCC4)nc(-c4cnc(N)nc4)nc3n2CC(F)(F)F)C[C@H](C)N1C(=O)CO [Example 120]	≤ 5 µM	> 8.00	≤ 5 µM	≤ 5 µM	> 8.00				
CC(=O)N1CCN(c2nc3c(N4CCOCC4)nc(-c4cnc(N)nc4)nc3n2CC(F)(F)F)CC1(C)C [Example 122, 5-[8-(4-Acetyl-3,3-dimethylpiperazin-1-yl)-6-morpholin-4-yl-9-(2,2,2-trifluoroethyl)-9H-purin-2-yl]pyrimidin-2-amine]	≤ 5 µM	> 8.00	≤ 5 µM	≤ 5 µM	> 8.00				
CC1(C)CN(c2nc3c(N4CCOCC4)nc(-c4cnc(N)nc4)nc3n2CC(F)(F)F)CCN1C(=O)CO [Example 123]	≤ 5 µM	7.70 to 8.00	≤ 5 µM	≤ 5 µM	> 8.00				
CC(O)C(=O)N1[C@H](C)CN(c2nc3c(N4CCOCC4)nc(-c4cnc(N)nc4)nc3n2CC(F)(F)F)C[C@@H]1C (stereo partly drawn) [Example 124, 1-{4-[2-(2-Aminopyrimidin-5-yl)-6-morpholin-4-yl-9-(2,2,2-trifluoroethyl)-9H-purin-8-yl]-cis-2,6-dimethylpiperazin-1-yl}-1-oxopropan-2-ol]	≤ 5 µM	7.70 to 8.00	≤ 5 µM	≤ 5 µM	> 8.00				

Further lines, with some results ahead:

GI50 [1]	pIC50 (PI3Kα)	GI50 [2]	GI50 [3]	pIC50 [5]	SMILES	inhibition in vivo at 10 mg/kg/day ([4]; 10 mg/kg/day, 8 or 5 consecutive days depending on compound)	inhibition in vivo at 20 mg/kg/day ([4]; 20 mg/kg/day, consecutive days)	inhibition at 10 mg/kg [6]	inhibition at 10 mg/kg [7]
≤ 5 µM	> 8.00	≤ 5 µM	≤ 5 µM	> 8.00	C[C@H]1CN(c2nc3c(N4CCOCC4)nc(-c4cnc(N)nc4)nc3n2CC(F)(F)F)CCN1C(=O)CO [Example 125, 2-{(2S)-4-[2-(2-Aminopyrimidin-5-yl)-6-morpholin-4-yl-9-(2,2,2-trifluoroethyl)-9H-purin-8-yl]-2-methylpiperazin-1-yl}-2-oxoethanol]				
≤ 5 µM	> 8.00	≤ 5 µM	≤ 5 µM	> 8.00	C[C@@H]1CN(c2nc3c(N4CCOCC4)nc(-c4cnc(N)nc4)nc3n2CC(F)(F)F)CCN1C(=O)CO [Example 126, 2-{(2R)-4-[2-(2-Aminopyrimidin-5-yl)-6-morpholin-4-yl-9-(2,2,2-trifluoroethyl)-9H-purin-8-yl]-2-methylpiperazin-1-yl}-2-oxoethanol]				
≤ 5 µM	> 8.00	≤ 5 µM	≤ 5 µM		CC(C)Cn1c(N2CCN(C(=O)C[C@H](C)O)CC2)nc2c(N3CCOC[C@@H]3C)nc(-c3cnc(N)nc3)nc21 [Example 133, (2S)-4-(4-[2-(2-Aminopyrimidin-5-yl)-9-isobutyl-6-[(3S)-3-methylmorpholin-4-yl]-9H-purin-8-yl]piperazin-1-yl)-4-oxobutan-2-ol]			> 90%	> 60%
